Measurements taken from patent US7893067B2, “Cysteine protease inhibitors” (Medivir AB, priority 2007, dated 2011).
Where two headings read alike, the source gives them in different places.

Assays:
[1] = Metabolic stability in human hepatic cytosol assay; type: in vitro ADME
Method: Compounds of the invention and the indicated comparative examples were tested for metabolic stability in a cytosol assay in which the compounds were incubated with commercially available human hepatic cytosol fractions and the disappearance of the compound monitored by HPLC or LC/MS. Pooled human liver cytosol fractions are less likely to represent outlier individuals than blood from a single individual and can be stored frozen, unlike whole blood. The cytosol assay thus provides a consistent assay testbed as a guide to the stability of a compound in the in vivo environment, such as when exposed to whole blood.
In short, test compounds (2 μM) are incubated in pooled human liver cytosol (Xenotech LLC Lenexa US, 1 mg/mL protein in 0.1M phosphate buffer, pH 7.4) at 37° centigrade over a one hour period. The incubations are initiated by the addition of 1 mM NADPH co-factor. Timed sub-samples were taken at 0, 20, 40 and 60 minutes and “crash precipitated” by the addition of 3 volumes of ice-cold acetonitrile. The samples were centrifuged at reduced temperature and the supernatants were separated and analyzed by LC-MS-MS.

[2] = typical reference compounds (markers) for the Caco-2 assay; cited from earlier work
[3] = molecular target: T1, human recombinant cathepsin K (Homo sapiens, UniProt P43235); assay: Determination of cathepsin K proteolytic catalytic activity (Ki); type: biochemical
T1 construct: made in house; host or cells: not fixed: E coli, Pichia or Baculovirus systems named as options
T1 sequence (P43235 115-329): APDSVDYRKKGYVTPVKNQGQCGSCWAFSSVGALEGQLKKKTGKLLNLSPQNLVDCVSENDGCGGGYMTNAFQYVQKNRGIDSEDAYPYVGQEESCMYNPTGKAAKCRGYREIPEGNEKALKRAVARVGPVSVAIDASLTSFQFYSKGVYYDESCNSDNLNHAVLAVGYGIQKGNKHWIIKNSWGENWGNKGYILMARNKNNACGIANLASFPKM
Method: Convenient assays for cathepsin K are carried out using human recombinant enzyme, such as that described in PDB.
The recombinant cathepsin K can be expressed in a variety of commercially available expression systems including E coli, Pichia and Baculovirus systems. The purified enzyme is activated by removal of the prosequence by conventional methods.
Standard assay conditions for the determination of kinetic constants used a fluorogenic peptide substrate, typically H-D-Ala-Leu-Lys-AMC, and were determined in either 100 mM Mes/Tris, pH 7.0 containing 1 mM EDTA and 10 mM 2-mercaptoethanol or 100 mM Na phosphate, imM EDTA, 0.1% PEG4000 pH 6.5 or 100 mM Na acetate, pH 5.5 containing 5 mM EDTA and 20 mM cysteine, in each case optionally with […] as stabiliser. The enzyme concentration used was 5 nM. The stock substrate solution was prepared at 10 mM in DMSO. Screens were carried out at a fixed substrate concentration of 60 μM and detailed kinetic studies with doubling dilutions of substrate from 250 μM. The total DMSO concentration in the assay was kept below 3%. All assays were conducted at ambient temperature. Product fluorescence (excitation at 390 nm, emission at 460 nm) was monitored with a Labsystems Fluoroskan Ascent fluorescent plate reader. Product progress curves were generated over 15 minutes following generation of AMC product.
(§1) Potential inhibitors are screened using the above assay with variable concentrations of test compound. Reactions were initiated by addition of enzyme to buffered solutions of substrate and inhibitor. Ki values were calculated according to equation 1
(§2) [formula] where v0 is the velocity of the reaction, V is the maximal velocity, S is the concentration of substrate with Michaelis constant of KM, and/is the concentration of inhibitor.

[4] = molecular target: T2, baculovirus-expressed human cathepsin S (Homo sapiens, UniProt P25774); assay: Cathepsin S Ki determination; type: biochemical
T2 construct: made in house
Method: 280 μl/well of 12.5% DMSO are added to rows B-H of two columns of a 96 deep well polypropylene plate. 70 μl/well of substrate is added to row A. 2×250 μl/well of assay buffer (100 mM Na phosphate, 100 mM NaCl, pH 6.5) is added to row A, mixed, and double diluted down the plate to row H. 100 μl/well of assay buffer is added to columns 2-5 and 7-12 of 4 rows of a 96 well V bottom polypropylene plate. 200 μl/well of assay buffer is added to columns 1 and 6. […] Add 90 μl assay buffer containing 1 mM DTT and 2 nM cathepsin S to each well of rows B-H and 180 μl to row A. Mix row A using a multichannel pipette and double dilute to row G. Mix row H and read in the fluorescent spectrophotometer. […] The second test compound is added to column 6 of the top row, the third to column 1 of the second row etc. Add 1 μl of comparator to column 6 of the bottom row. Mix column 1 and double dilute to column 5. Mix column 6 and double dilute to column 10. Using an 8-channel multistepping pipette set to 5×10 μl, distribute 10 μl/well of substrate to the 384 well assay plate. Distribute the first column of the substrate dilution plate to all columns of the assay plate starting at row A. The tip spacing of the multichannel pipette will correctly skip alternate rows. Distribute the second column to all columns starting at row B. Using a 12-channel multistepping pipette set to 4×10 μl, distribute 10 μl/well of inhibitor to the 384 well assay plate. Distribute the first row of the inhibitor dilution plate to alternate rows of the assay plate starting at A1. The tip spacing of the multichannel pipette will correctly skip alternate columns. Similarly, distribute the second, third and fourth rows to alternate rows and columns starting at A2, B1 and B2 respectively. Mix 20 ml assay buffer and 20 μl 1M DTT. Add sufficient cathepsin S to give 2 nM final concentration. Using the a distributor such as a Multidrop 384, add 30 μl/well to all wells of the assay plate and read in fluorescent spectrophotomoter such as an Ascent. Fluorescent readings, (excitation and emission wavelengths 390 nm and 460 nm respectively, set using bandpass filters) reflecting the extent of enzyme cleavage of the fluorescent substrate, notwithstanding the inhibitor, are linear rate fitted for each well. Fitted rates for all wells for each inhibitor are fitted to the competitive inhibition equation using SigmaPlot 2000 to determine V, Km and Ki values. Potential inhibitors are screened using the above assay with variable concentrations of test compound. Reactions were initiated by addition of enzyme to buffered solutions of substrate and inhibitor. Ki values were calculated according to equation 1 [formula] where v0 is the velocity of the reaction, V is the maximal velocity, S is the concentration of substrate with Michaelis constant of KM, and/is the concentration of inhibitor.

[5] = molecular target: human cathepsin L (Homo sapiens, UniProt P07711); assay: Cathepsin L Ki; type: biochemical
Method: The procedure above with the following amendments is used for the determination of Ki for cathepsin L.
The enzyme is commercially available human cathepsin L (for example Calbiochem). The substrate is H-D-Val-Leu-Lys-AMC available from Bahcem. The assay buffer is 100 mM sodium acetate 1 mM EDTA, pH5.5) The DMSO stock (10 mM in 100% DMSO) is diluted to 10% in assay buffer. Enzyme is prepared at 5 nM concentration in assay buffer plus 1 mM dithiothreitol just before use. 2 ul of 10 mM inhibitor made up in 100% DMSO is dispensed into row A. 10 ul of 50 uM substrate (=1/200 dilution of 10 mM stock in DMSO, diluted in assay buffer)
as §1, §2

[6] = Caco-2 permeability (Papp); type: in vitro ADME; conditions: human; Caco-2 assay, standard concentration 10 μM
Method: The transport plate comprises 3 rows of 4 wells.
Determination of the cumulative fraction absorbed, FAcum, versus time. FAcum is calculated from: […]
A linear relationship should be obtained.

[7] = 2 μM in pooled human liver cytosol, 1 mg/mL protein, pH 7.4, 37°, 1 mM NADPH
[8] = representative values from specific batches of compound/enzyme/assay occasion

Sequence of human cathepsin L (P07711 114-333): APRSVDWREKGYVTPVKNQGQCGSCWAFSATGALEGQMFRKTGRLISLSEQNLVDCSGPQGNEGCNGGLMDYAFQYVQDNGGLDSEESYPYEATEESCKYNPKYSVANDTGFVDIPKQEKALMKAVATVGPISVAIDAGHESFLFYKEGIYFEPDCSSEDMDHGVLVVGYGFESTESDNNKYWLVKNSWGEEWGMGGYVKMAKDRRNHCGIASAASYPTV
T2 sequence (P25774 115-331): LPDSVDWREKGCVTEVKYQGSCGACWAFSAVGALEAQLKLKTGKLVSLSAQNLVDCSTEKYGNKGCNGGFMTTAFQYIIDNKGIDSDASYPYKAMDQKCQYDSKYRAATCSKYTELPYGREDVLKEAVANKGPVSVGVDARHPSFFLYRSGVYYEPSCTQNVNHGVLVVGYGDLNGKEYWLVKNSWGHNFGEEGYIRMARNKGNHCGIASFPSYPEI

SMILES | half-life at 2 μM [1, 7] [h] | Ki ([3]; Table 1, class symbols) [nM] | Ki [3, 8] [nM] | Ki ([4]; Table 1, class symbols) [nM] | Ki [4, 8] [nM] | Ki ([5]; Table 1, class symbols) [nM] | Ki [5, 8] [nM] | further results
CC(C)C[C@H](NC(=O)c1ccc(-c2csc(N3CCN(C)CC3)n2)cc1)C(=O)N1C[C@H](Cl)[C@H]2OCC(=O)[C@H]21 [Comparative Example 1, reference compound] | 0.4 |  |  |  |  |  |  | 
N[C@@H](Cc1ccccc1)C(=O)O [L-Phenylalanine] |  |  |  |  |  |  |  | % absorption in man [2]: 100%
Cc1sc(N2CCN(C)CC2)nc1-c1ccc(C(=O)N[C@@H](CC(C)C)C(=O)N2C[C@H](F)[C@H]3OCC(=O)[C@H]32)cc1 [Comparative Example 3, reference compound] | 1.67 to 2.5 |  |  |  |  |  |  | 
Cc1sc(N2CCN(C)CC2)nc1-c1ccc(C(=O)N[C@@H](CC(C)C)C(=O)N2C[C@@H](Cl)[C@H]3OCC(=O)[C@H]32)cc1 [Example 5, N-[1-(6-chloro-3-oxo-hexahydro-furo[3,2-b]pyrrol-4-carbonyl)-3-methyl-butyl]-4-[5-methyl-2-(4-methyl-piperazin-1-yl)-thiazol-4-yl]-benzamide] | 3.3 | < 50 | 1.6 | 5000 to 10000 | 7500 | 501 to 1000 | 880 | 
CN(Cc1cnc2nc(N)nc(N)c2n1)c1ccc(C(=O)N[C@@H](CCC(=O)O)C(=O)O)cc1 [Methotrexate] |  |  |  |  |  |  |  | % absorption in man [2]: 20%
CN1CCN(c2nc(-c3ccc(C(=O)N[C@@H](CC(C)(C)F)C(=O)N4C[C@@H](Cl)[C@H]5OCC(=O)[C@H]54)cc3)cs2)CC1 [Example 8, N—[(S)-1-((3aS,6R,6aS)-6-chloro-3-oxo-hexahydro-furo[3,2-b]pyrrole-4-carbonyl)-3-fluoro-3-methyl-butyl]-4-[2-(4-methyl-piperazin-1-yl)-thiazol-4-yl]benzamide] |  | < 50 | 3.3 | > 10000 | 13000 | 1000 to 5000 | 2900 | 
Cc1sc(N2CCN(C)CC2)nc1-c1ccc(C(=O)N[C@@H](CC(C)C)C(=O)N2CC[C@H]3OCC(=O)[C@H]32)cc1 [Comparative Example 2, reference compound] | 1.2 |  |  |  |  |  |  | cytosol half life ([1]; human liver cytosol): a little over an hour
CC(C)C[C@H](NC(=O)c1ccc(-c2csc(N3CCN(C)CC3)n2)cc1)C(=O)N1C[C@@H](Cl)[C@H]2OCC(=O)[C@H]21 [Example 6, N—[(S)-1-((3aS,6R,6aS)-6-chloro-3-oxo-hexahydro-furo[3,2-b]pyrrole-4-carbonyl)-3-methyl-butyl]-4-[2-(4-methyl-piperazin-1-yl)-thiazol-4-yl]benzamide] |  | < 50 | 1.5 | 1000 to 5000 | 4000 | 501 to 1000 | 890 | t1/2 minutes [1, 7]: >5 h; half-life at 2 μM ([1]; pooled human liver cytosol, pH 7.4, human liver cytosol, read-out: cytosol half life): > 5 h
OC[C@@H](O)[C@@H](O)[C@H](O)[C@H](O)CO [Mannitol] |  |  |  |  |  |  |  | % absorption in man [2]: 16%
CN1CCN(c2nc(-c3ccc(C(=O)N[C@H](C(=O)N4C[C@@H](Cl)[C@H]5OCC(=O)[C@H]54)C4CCCCC4)cc3)cs2)CC1 [Example 7, N-[2-((3aS,6R,6aS)-6-Chloro-3-oxo-hexahydro-furo[3,2-b]pyrrole-4-yl)-1-S-cyclohexyl-2-oxo-ethyl]-4-[2-(4-methyl-piperazin-1-yl)-thiazol-4-yl]-benzamide] |  | < 50 | 4.2 | 1000 to 5000 | 1700 | 1000 to 5000 | 1200 | 
CC(C)C[C@H](NC(=O)c1ccc(-c2csc(N3CCN(C)CC3)n2)c(F)c1)C(=O)N1C[C@@H](Cl)[C@H]2OCC(=O)[C@H]21 [Example 11] | 3 |  |  |  |  |  |  | 
CC(C)C[C@H](NC(=O)c1ccc(-c2csc(N3CCN(C)CC3)n2)c(F)c1)C(=O)N1C[C@@H](Cl)[C@H]2OCC(=O)[C@H]21 [Example 10, N—[(S)-1-((3aS,6R,6aS)-6-Chloro-3-oxo-hexahydro-furo[3,2-b]pyrrole-4-carbonyl)-3-methyl-butyl]-3-fluoro-4-[2-(4-methyl-piperazin-1-yl)-thiazol-4-yl]-benzamide] |  | < 50 | 3.4 | 1000 to 5000 | 4700 | 50 to 500 | 490 | Papp at 120 min, 10 μM [6]: 5.2 ×10⁻⁶ cm/s
CC(C)C[C@H](NC(c1ccc(-c2ccc(S(C)(=O)=O)cc2)cc1)C(F)(F)F)C(=O)N1C[C@@H](Cl)[C@H]2OCC(=O)[C@H]21 (stereo in doubt) [Example 13, 6-Chloro-4-{4-methyl-2-[2,2,2-trifluoro-1-(4′-methanesulfonyl-biphenyl-4-yl)-ethylamino]-pentanoyl}-tetrahydro-furo[3,2-b]pyrrol-3-one] |  | < 50 |  | > 10000 |  | 1000 to 5000 |  | 
